Data published in patent publication US11882828B2, “Mosquito vector control compositions, methods and products utilizing same” (priority 2015, dated 2024).
Read-outs that look alike come from different tables or passages of the source.

Experiments:
[1] = test system: Aedes aegypti (Yellow fever mosquito); experiment: whole plant or invertebrate; settings: Aedes aegypti; for pest or weed control at 20 ppm: 1 h, read-out: Knockdown; for mortality at 20 ppm: 48 h
Procedure: […] Once the deposits were dry, five non-blood fed adult female Aedes aegypti (between two to five days old) were added to each well, and sustained with a 10% sucrose solution in a cotton wool plug. Assessment of the knockdown after 1 hour, and mortality after 48 hours was carried out.
(§1) In case of multiple tests, the mean value is reported.

[2] = test system: Anopheles stephensi (Indian malaria mosquito); experiment: whole plant or invertebrate; settings: Anopheles stephensi; for pest or weed control at 20 ppm: 1 h, read-out: Knockdown; for mortality at 20 ppm: 48 h
Procedure: […] Once the deposits were dry, five non-blood fed adult female Anopheles stephensi (between two to five days old) were added to each well, and sustained with a 10% sucrose solution in a cotton wool plug. Assessment of the knockdown after 1 hour, and mortality after 48 hours was carried out.
as §1

[3] = test system: Aedes aegypti; experiment: whole plant or invertebrate; settings: Aedes aegypti, 48 h
Procedure: (§2) The individual wells of six (6) well tissue culture plates were treated with 250 μl of an ethanol solution containing a test compound at a defined concentration. Once the deposits were dry, ten non-blood fed adult female Aedes aegypti or Anopheles stephensi (each between two to five day old) were added to each well, and sustained with a 10% sucrose solution in a cotton wool plug.
(§3) Assessment of the mortality was carried out at 48 hours.
(§4) Each treatment was replicated twice, with the mean mortality recorded.

[4] = test system: Anopheles stephensi; experiment: whole plant or invertebrate; settings: Anopheles stephensi, 48 h
Procedure: as §2, §3, §4

[5] = test system: An. Gambiae Kisumu sus; experiment: Example B5: bottle based cross resistance study (CDC bottle assay); assay type: in vivo; settings: Anopheles gambiae, 24 h
Procedure: (§5) Based on the “CDC bottle assay” (described at http://www.cdc.gov/malaria/resources/pdf/fsp/ir_manual/ir_cdc_bioassay_en.pdf) 1 ml of ethanol containing a test compound at a defined concentration was added to a 250 ml glass bottle and the bottles were placed on a rolling table to coat the inner surfaces as the solvent evaporated. Once dry, twenty five non-blood fed adult female mosquitoes of the appropriate species and strains (each three day old) were aspirated from the stock culture and gently blown into the exposure bottles. The lid of the bottle was replaced and the bottle placed upright out of direct sun light under standard culture conditions, nominally 28C and 60-80% relative humidity.
(§6) A stopwatch was started, and the assessment of the knock-down were made after 15 minutes and 60 minutes. A mosquito was said to be knocked down if it was unable to stand, following the CDC definition. The bottles were replaced in an upright position when not being assessed.
(§7) After one hour the mosquitoes were carefully removed from the bottle with an aspirator and placed in a recovery cup. The mosquitoes were supplied with a 10% sucrose solution on a cotton wool bung, and stored under culture conditions. Assessments of the mortality were made after 24 hours.
(§8) Each treatment was replicated a minimum of four times, with the mean knockdown or mortality recorded. In each study, a set of bottles was infested with a known insecticide susceptible strain of mosquitoes from the same genera as the resistant strains.

[6] = test system: FUMOZ; experiment: as above; assay type: in vivo; settings: Anopheles funestus, 24 h
Procedure: as §5, §6, §7, §8

[7] = test system: VK7; experiment: as above; assay type: in vivo; settings: Anopheles coluzzii, Table B5b, after 24 hours
Procedure: as §5, §6, §7, §8

[8] = test system: Aedes aegypti; experiment: Example B7: evaluation of insecticide impregnated polymer surfaces; assay type: in vivo; settings: AI content 2 wt %; for mortality: 24 hours after exposure; for knock-down: after one hour
Source text: (§9) Preparation of polymeric sheets: Certain methoxyacrylate were Impregnated into three polymers: LDPE (low density polyethylene), HDPE (high density polyethylene) and PP (polypropylene) in different concentrations by mixing the respective polymer with a compound at high temperatures and the resultant polymeric material were then mould into thin discs or plaques.
(§10) Twenty four hours prior to the relevant assessment intervals, three to five day old non-blood fed adult mosquitoes were taken from the culture and lightly anaesthetised with carbon dioxide. Ten females were selected and placed in a 250 ml plastic cup, retained with a net lid, provided with a 10% sucrose solution soaked in a cotton wool bung and held under culturing environmental conditions.
(§11) After twenty four hours, impregnated polymer sheets (measuring about 150 mm in diameter and about 0.1 mm in thickness) were removed from storage and wrapped around the glazed side of an 11 cm ceramic tile and held in place with an elastic band. A cup of the pre-selected mosquitoes were again lightly anaesthetised with carbon dioxide and transferred from the holding cup to the base of a 9 cm plastic Petri dish. The relevant impregnated polymer sheet was placed over the Petri dish and held in place with an elastic band. Once the mosquitoes had recovered from the anaesthetic, ca. 1 minute, the impregnated polymer sheet was placed on a holding rack, such that treated side was at an angle of […] to the horizontal.
(§12) After one hour an assessment of mosquito knockdown was made. A mosquito was said to be knocked down if it was unable to right itself once it had fallen over. The mosquitoes were lightly anaesthetised again, and removed from the Petri dish exposure chamber and returned to the holding cups. The mosquitoes were supplied with a 10% sucrose solution soaked in a cotton wool bung and held under culturing environmental conditions. An assessment of mortality was made 24 hours after exposure. A mosquito was said to be dead if it is unable to right itself once it had fallen over.

[9] = test system: Anopheles stephensi; experiment: as above; assay type: in vivo; settings: AI content 2 wt %; for mortality: 24 hours after exposure; for knock-down: after one hour
Source text: as §9, §10, §11, §12

[10] = Table B5b, 25 ppm, after 24 hours, Kisumu sus
[11] = Table B5b, 25 ppm, after 24 hours, FUMOZ
[12] = HDPE, polymer 8 to 12 weeks old
[13] = LDPE, polymer 8 to 12 weeks old

SMILES	pest or weed control at 20 ppm [1] [%]	mortality at 20 ppm [1] [%]	pest or weed control at 20 ppm [2] [%]	mortality at 20 ppm [2] [%]	mortality at 5 ppm [3] [%]	mortality at 5 ppm [4] [%]	mortality at 25 ppm [5, 10] [%]	mortality at 25 ppm [6, 11] [%]	mortality at 25 ppm ([7]; 24 h) [%]	mortality ([8]; HDPE, polymer 2 to 4 weeks old) [%]	knock-down ([8]; HDPE, polymer 2 to 4 weeks old) [%]	mortality ([8]; HDPE, polymer 6 to 8 weeks old) [%]	knock-down ([8]; HDPE, polymer 6 to 8 weeks old) [%]	mortality ([8]; LDPE, polymer 2 to 4 weeks old) [%]	knock-down ([8]; LDPE, polymer 2 to 4 weeks old) [%]	knock-down ([8]; LDPE, polymer 6 to 8 weeks old) [%]	knock-down ([9]; HDPE, polymer 2 to 4 weeks old) [%]	knock-down [9, 12] [%]	knock-down ([9]; LDPE, polymer 2 to 4 weeks old) [%]	knock-down [9, 13] [%]	also measured
CO/C=C(/C(=O)OC)c1ccccc1Oc1cc(C(F)(F)F)ccn1 [Compound 8, Methyl (E)-2-[2-[[4-(trifluoromethyl)-2-pyridyl]oxy]phenyl]-3-methoxy-prop-2-enoate]	67	100	100	100	100	100	61	56	20	53	100	75	100	100	100	100	100	100	100	90	mortality ([8]; LDPE, polymer 6 to 8 weeks old): 100%; mortality ([9]; HDPE, polymer 2 to 4 weeks old): 100%; mortality [9, 12]: 80%; mortality ([9]; LDPE, polymer 2 to 4 weeks old): 100%; mortality [9, 13]: 100%
CO/C=C(/C(=O)OC)c1ccccc1Oc1ncc(C(F)(F)F)s1 [Compound 13, Methyl (E)-3-methoxy-2-[2-[5-(trifluoromethyl)thiazol-2-yl]oxyphenyl]prop-2-enoate]	100	100	100	100	78	100	94	70	61	73	100	65	100	93	100	100	100	90	100	100	mortality ([8]; LDPE, polymer 6 to 8 weeks old): 95%; mortality ([8]; PP, polymer 2 to 4 weeks old): 87%; knock-down ([8]; PP, polymer 2 to 4 weeks old): 100%; mortality ([8]; PP, polymer 6 to 8 weeks old): 35%; knock-down ([8]; PP, polymer 6 to 8 weeks old): 100%; mortality ([9]; HDPE, polymer 2 to 4 weeks old): 100%; mortality [9, 12]: 0%; mortality ([9]; LDPE, polymer 2 to 4 weeks old): 100%; mortality [9, 13]: 80%; mortality ([9]; PP, polymer 2 to 4 weeks old): 100%; knock-down ([9]; PP, polymer 2 to 4 weeks old): 100%; mortality ([9]; PP, polymer 8 to 12 weeks old): 10%; knock-down ([9]; PP, polymer 8 to 12 weeks old): 100%
CO/C=C(/C(=O)OC)c1ccccc1CO/N=C(\C)OC [Compound 22]	100	100	100	100	100	100	–	–	–	–	93	–	95	–	100	100	100	90	100	80	mortality at 25 ppm [5]: 100%; mortality at 25 ppm [6]: 68%; mortality at 25 ppm ([7]; read-out: Mortality): 96%; knock-down ([8]; PP, polymer 2 to 4 weeks old): 100%; knock-down ([8]; PP, polymer 6 to 8 weeks old): 100%; knock-down ([9]; PP, polymer 2 to 4 weeks old): 100%; knock-down ([9]; PP, polymer 8 to 12 weeks old): 100%
